# Test results from ChEMBL document CHEMBL1127502, “Mixed 5-HT1A/D-2 activity of a new model of arylpiperazines: 1-aryl-4-[3-(1,2-dihydronaphthalen-4-yl)-n-propyl]piperazines. 1. Synthesis and structure-activity relationships” (J Med Chem, 1994).
# Experiments:
# D(2) dopamine receptor [1] = molecular target: T1, D(2) dopamine receptor (Rattus norvegicus, UniProt P61169); experiment: In vitro ability to inhibit binding of radioligand [3H]spiroperidol to dopamine D2 receptor in rat corpora striata
# T1 sequence (P61169 whole entry): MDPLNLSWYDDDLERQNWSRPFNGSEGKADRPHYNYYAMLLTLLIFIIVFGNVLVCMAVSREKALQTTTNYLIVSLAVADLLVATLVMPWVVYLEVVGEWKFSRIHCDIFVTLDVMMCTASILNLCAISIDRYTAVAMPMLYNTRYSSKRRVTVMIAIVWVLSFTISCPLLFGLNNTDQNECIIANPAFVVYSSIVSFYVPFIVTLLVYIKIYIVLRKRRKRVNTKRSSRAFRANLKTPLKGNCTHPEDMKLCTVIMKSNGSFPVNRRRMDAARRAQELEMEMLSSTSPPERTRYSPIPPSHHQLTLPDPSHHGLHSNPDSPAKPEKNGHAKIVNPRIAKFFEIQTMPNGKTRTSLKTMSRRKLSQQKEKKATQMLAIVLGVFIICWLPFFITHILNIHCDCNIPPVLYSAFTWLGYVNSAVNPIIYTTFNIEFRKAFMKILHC
# Rattus norvegicus = experiment: Effective dose required to inhibit behavior effects induced by 8-OH-DPAT in reserpinized rats after subcutaneous administration; type: functional; details: sc
# D(2) dopamine receptor [2] = molecular target: T1, D(2) dopamine receptor; experiment: Inhibition of binding of radioligand [3H]spiroperidol to dopamine D2 receptor in rat striatal membranes; type: cell membranes, Membrane
# [3] = molecular target: Serotonin 2 (5-HT2) receptor (Rattus norvegicus, UniProt P30994+P08909+P14842); experiment: Inhibition of binding of radioligand [3H]ketanserin to 5-hydroxytryptamine 2 receptor in rat cerebral cortex; type: tissue-based
# [4] = molecular target: T2, 5-hydroxytryptamine receptor 1A (Rattus norvegicus, UniProt P19327); experiment: In vitro ability to inhibit binding of radioligand [3H]8-OH-DPAT to 5-hydroxytryptamine 1A receptor in rat cerebral cortex; type: tissue-based
# T2 sequence (P19327 whole entry): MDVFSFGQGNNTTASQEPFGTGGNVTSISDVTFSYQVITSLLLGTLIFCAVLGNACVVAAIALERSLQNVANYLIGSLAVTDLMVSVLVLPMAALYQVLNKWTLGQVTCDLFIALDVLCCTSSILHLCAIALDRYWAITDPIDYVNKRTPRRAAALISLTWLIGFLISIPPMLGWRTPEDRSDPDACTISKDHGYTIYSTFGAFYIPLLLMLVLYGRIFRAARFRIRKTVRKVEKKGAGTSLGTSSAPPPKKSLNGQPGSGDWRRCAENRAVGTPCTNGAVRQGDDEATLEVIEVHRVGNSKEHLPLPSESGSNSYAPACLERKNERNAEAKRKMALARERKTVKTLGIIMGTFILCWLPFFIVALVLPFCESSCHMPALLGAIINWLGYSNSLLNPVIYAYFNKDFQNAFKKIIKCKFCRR
# D(2) dopamine receptor [5] = molecular target: T1, D(2) dopamine receptor; experiment: In vitro ability to inhibit binding of radioligand [3H]spiroperidol to dopamine D2 receptor in rat striatal membranes; type: cell membranes, Membrane
# D(2) dopamine receptor [6] = molecular target: T1, D(2) dopamine receptor; experiment: In vito ability to inhibit binding of radioligand [3H]spiroperidol to dopamine D2 receptor in rat corpora striata
Structure (SMILES),Ki (D(2) dopamine receptor [1]) [nM],ED50 (Rattus norvegicus) [mg/kg],IC50 (D(2) dopamine receptor [2]) [nM],IC50 [3] [nM],IC50 [4] [nM],Ki [4] [nM],Ki (D(2) dopamine receptor [5]) [nM],Ki (D(2) dopamine receptor [6]) [nM]
COc1ccc2c(c1)CCC=C2CCCN1CCN(c2ccccc2OC)CC1,22.4,0.76,90.6,391,2,1.78,,
COc1ccc2c(c1)CCC=C2CCCN1CCN(c2ccccn2)CC1,,,778,146,63.6,,,
COc1ccc2c(c1)CCC=C2CCCN1CCN(c2cc(OC)ccc2OC)CC1,,,201,932,161,,,
COc1cccc2c1C(CCCN1CCN(c3cccc(Cl)c3)CC1)=CCC2,,,484,1340,31.4,,,
COc1ccccc1N1CCN(CCCC2=CCCc3cccc(OC)c32)CC1,,,17.4,770,8.8,,,
COc1ccc2c(c1)CCC=C2CCCN1CCN(c2cccc(C(F)(F)F)c2)CC1,,,1290,1170,138,,,
COc1ccccc1N1CCN(CCCC2=CCCc3ccccc32)CC1,,,14.7,104,15.7,,,
COc1ccc2c(c1)CCC=C2CCCN1CCNCC1,,,> 10000,> 10000,> 10000,,,
COc1ccc2c(c1)CCC=C2CCCN1CCN(c2ccccc2)CC1,,,777,119,147,,,
COc1cccc2c1C(CCCN1CCN(c3cccc(C(F)(F)F)c3)CC1)=CCC2,,24.2,644,2370,55.9,,,
COc1cccc2c1C(CCCN1CCN(c3ccccc3)CC1)=CCC2,,,303,204,,,,
COc1ccc2c(c1)CCC=C2CCCN1CCN(c2cccc(Cl)c2)CC1,,,768,133,131,,,
COc1ccccc1N1CCN(CCCCN2C(=O)c3ccccc3C2=O)CC1 [NAN-190],,,,,,,9.55,
COc1cccc2c1C(CCCN1CCN(c3ccccn3)CC1)=CCC2,,,119,205,1.4,1.26,,29.5
